Assay results from patent US20030078212A1, “PHARMACEUTICAL COMPOSITIONS CONTAINING POLY(ADP-RIBOSE) GLYCOHYDROLASE INHIBITORS AND METHODS OF USING THE SAME” (priority 1998, published 2003).

Key:
[1] = test system: cell viability, glucose metabolism, and DNA synthesis; details: cited from earlier work
[2] = test system: ischemia and reperfusion of the heart; details: rabbits, cited from earlier work
[3] = test system: human fibroblast cells lines (W138 or BJ cells); test: Extending proliferative capacity and lifespan of cells; assay type: cell-based
Description: At the time of subdivision, the media is aspirated, and the cells rinsed with phosphate buffer saline (PBS) and then trypsinized. The cells are counted with a Coulter counter and plated at a density of 10^5 cells per cm^2 in 6-well tissue culture plates in DMEM/199 medium supplemented with 10% bovine calf serum and varying amounts (0.10 μM, and 1 mM: from a 100×stock solution in DMEM/M199 medium) of a PARG inhibitor. This process is repeated every 7 days until the cell appear to stop dividing. The untreated (control) cells reach senescence and stop dividing after about 40 days in culture. […] The cells treated with 1 mM 3-AB will still divide after 60 days in culture.

Colitis = details: rats; colitis by trinitrobenzene sulfonic acid in 50% ethanol; cited from earlier work
endotoxic shock = details: cited from earlier work

With `NC(=O)c1ccccc1` [benzamide] as the molecule, how does the “additional metabolic effects (side effects)” value [1] read?
The value was “affect cell viability, glucose metabolism, and DNA synthesis”.

With `Oc1cccc2c(O)nccc12` [1,5-dihydroxyisoquinoline] as the molecule, how does the “reduction in infarct size” value ([2]; 1 mg/kg) read?
The value was 38-48%.

For `NC(=O)c1cccc(N)c1` [3-aminobenzamide], which “effect on lifespan of the cells” value ([3]; 10 μM) is on record?
The value was “little or no effect”.

And the “effect on lifespan of the cells” value ([3]; 100 μM)?
Its value is “lengthen the lifespan of the cells”.

What about the “effect on lifespan and proliferative capacity of the cells” value ([3]; 1 mM) of the same molecule?
The value was “dramatically increases the lifespan and proliferative capacity of the cells”.

And the “time in culture at which cells still divide” value ([3]; 1 mM, untreated cells stop dividing after about 40 days)?
Its value is over 60 days.

What about the “reduction in infarct size in the heart” value ([2]; single injection 10 mg/kg, one minute before occlusion or one minute before reperfusion) of the same molecule?
Its value is 32-42%.

What about the “inflammatory response, morphology and energetic status of the distal colon” value (Colitis) of the same molecule?
Its value is “reduced the inflammatory response and restored the morphology and the energetic status of the distal colon”.

What about the “additional metabolic effects (side effects)” value [1] of the same molecule?
Its value is “affect cell viability, glucose metabolism, and DNA synthesis”.

Which “delayed, NO-mediated vascular failure” value (endotoxic shock) does the source give for `NC(=O)c1cccnc1` [nicotinamide] here?
Its value is “protects against delayed, NO-mediated vascular failure in endotoxic shock”.

Which melting point does the source give for `COc1cc(C(=O)OC[C@H]2OC(OC(=O)c3cc(OC)c(OC)c(OC)c3)[C@H](OC(=O)c3cc(OC)c(OC)c(OC)c3)[C@@H](OC(=O)c3cc(OC)c(OC)c(OC)c3)[C@@H]2OC(=O)c2cc(OC)c(OC)c(OC)c2)cc(OC)c1OC` (stereo partly drawn) [Example 4, 1,2,3,4,6-Penta-O-(3,4,5-Trimethoxybenzoyl)-D-Glucopyranose] here?
Its melting point is 85 to 90 °C.
